In ChEMBL document CHEMBL4396970, “Benzothiazole-based compounds as potent endothelial lipase inhibitors” (Bioorg Med Chem Lett, 2019):
Activity calls are given as the source filed them. No cut-off for these calls is given here.

How the values were obtained:
[1] = Metabolic stability in human liver microsomes assessed as parent compound remaining at 0.5 uM preincubated with compound followed by NADPH addition and measured after 10 mins; type: ADME, Microsome; conditions: read-out: Stability
[2] = target: Cytochrome P450 2C9 (Homo sapiens, UniProt P11712); experiment: Inhibition of CYP2C9 (unknown origin); type: ADME
Sequence of Cytochrome P450 2C9 (P11712 whole entry): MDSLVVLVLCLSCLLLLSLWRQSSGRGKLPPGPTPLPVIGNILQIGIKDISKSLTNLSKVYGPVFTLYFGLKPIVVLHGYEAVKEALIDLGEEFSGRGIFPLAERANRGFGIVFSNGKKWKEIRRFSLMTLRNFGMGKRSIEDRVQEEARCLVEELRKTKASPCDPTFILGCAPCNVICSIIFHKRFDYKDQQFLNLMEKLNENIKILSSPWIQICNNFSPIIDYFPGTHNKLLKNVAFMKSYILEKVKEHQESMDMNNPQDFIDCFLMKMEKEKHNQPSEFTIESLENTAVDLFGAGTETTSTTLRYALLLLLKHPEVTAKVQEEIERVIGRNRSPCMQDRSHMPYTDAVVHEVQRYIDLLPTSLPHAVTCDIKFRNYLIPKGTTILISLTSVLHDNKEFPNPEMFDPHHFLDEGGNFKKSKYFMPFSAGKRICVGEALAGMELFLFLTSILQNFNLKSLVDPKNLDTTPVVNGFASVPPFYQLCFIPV

[3] = target: Cytochrome P450 3A4 (Homo sapiens, UniProt P08684); experiment: Inhibition of CYP3A4 (unknown origin); type: ADME
Sequence of Cytochrome P450 3A4 (P08684 whole entry): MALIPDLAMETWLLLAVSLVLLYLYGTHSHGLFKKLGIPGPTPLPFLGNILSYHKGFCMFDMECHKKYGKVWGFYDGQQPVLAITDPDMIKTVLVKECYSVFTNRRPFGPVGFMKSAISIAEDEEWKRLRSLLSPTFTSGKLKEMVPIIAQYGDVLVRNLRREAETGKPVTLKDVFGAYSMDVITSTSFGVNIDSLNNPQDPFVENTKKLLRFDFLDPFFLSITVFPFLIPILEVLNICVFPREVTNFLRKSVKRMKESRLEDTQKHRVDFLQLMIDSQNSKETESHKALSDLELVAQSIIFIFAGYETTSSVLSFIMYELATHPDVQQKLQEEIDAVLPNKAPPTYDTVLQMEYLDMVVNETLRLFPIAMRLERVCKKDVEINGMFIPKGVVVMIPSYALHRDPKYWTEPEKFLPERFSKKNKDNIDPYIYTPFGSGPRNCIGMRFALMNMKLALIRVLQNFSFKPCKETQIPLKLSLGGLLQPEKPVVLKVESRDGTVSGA

[4] = target: T1, Endothelial lipase (Homo sapiens, UniProt Q9Y5X9); experiment: Inhibition of endothelial lipase in human serum; type: cell-free
T1 sequence (Q9Y5X9 whole entry): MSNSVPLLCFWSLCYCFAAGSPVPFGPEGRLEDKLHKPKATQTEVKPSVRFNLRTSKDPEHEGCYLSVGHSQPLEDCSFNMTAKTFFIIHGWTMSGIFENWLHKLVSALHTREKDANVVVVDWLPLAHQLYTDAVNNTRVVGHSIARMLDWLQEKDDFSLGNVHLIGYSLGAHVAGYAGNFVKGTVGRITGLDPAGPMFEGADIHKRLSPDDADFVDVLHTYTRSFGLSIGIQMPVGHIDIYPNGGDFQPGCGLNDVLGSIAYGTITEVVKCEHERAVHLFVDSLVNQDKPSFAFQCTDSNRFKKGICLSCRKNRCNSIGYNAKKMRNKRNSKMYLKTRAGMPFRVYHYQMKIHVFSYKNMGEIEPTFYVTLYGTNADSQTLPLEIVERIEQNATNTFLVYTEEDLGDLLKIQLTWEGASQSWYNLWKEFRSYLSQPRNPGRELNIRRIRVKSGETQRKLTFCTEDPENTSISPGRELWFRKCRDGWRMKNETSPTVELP

[5] = target: Cytochrome P450 2D6 (Homo sapiens, UniProt P10635); experiment: Inhibition of CYP2D6 (unknown origin); type: ADME
Sequence of Cytochrome P450 2D6 (P10635 whole entry): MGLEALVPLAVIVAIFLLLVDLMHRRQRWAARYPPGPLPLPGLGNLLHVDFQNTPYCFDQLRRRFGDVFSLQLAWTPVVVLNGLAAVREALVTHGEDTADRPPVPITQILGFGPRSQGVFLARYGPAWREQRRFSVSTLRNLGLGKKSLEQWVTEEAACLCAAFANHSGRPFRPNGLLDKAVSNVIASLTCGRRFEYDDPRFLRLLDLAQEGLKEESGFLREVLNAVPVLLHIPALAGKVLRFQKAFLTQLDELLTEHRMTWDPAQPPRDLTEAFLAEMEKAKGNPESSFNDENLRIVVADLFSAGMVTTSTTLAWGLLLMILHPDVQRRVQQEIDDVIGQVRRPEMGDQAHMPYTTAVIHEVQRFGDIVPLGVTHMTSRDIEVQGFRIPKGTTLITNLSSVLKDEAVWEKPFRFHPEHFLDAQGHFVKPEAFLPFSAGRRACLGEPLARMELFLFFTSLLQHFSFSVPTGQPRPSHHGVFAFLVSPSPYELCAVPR

[6] = target: T2, Cytochrome P450 1A2 (Homo sapiens, UniProt P05177); experiment: Inhibition of CYP1A2 (unknown origin); type: ADME
T2 sequence (P05177 whole entry): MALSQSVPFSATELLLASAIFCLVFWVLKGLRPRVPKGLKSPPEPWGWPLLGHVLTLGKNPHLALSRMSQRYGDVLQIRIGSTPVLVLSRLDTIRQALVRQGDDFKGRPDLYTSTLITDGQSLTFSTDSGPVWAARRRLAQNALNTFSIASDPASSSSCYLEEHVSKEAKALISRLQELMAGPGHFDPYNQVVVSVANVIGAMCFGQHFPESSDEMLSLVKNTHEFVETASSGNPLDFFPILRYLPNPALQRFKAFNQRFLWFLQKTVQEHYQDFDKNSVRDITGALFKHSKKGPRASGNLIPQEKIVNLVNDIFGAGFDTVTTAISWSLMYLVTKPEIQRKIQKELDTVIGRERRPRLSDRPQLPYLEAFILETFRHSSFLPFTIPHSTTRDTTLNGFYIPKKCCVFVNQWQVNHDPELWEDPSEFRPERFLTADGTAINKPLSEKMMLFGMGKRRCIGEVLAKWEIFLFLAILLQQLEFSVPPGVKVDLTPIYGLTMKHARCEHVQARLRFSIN

[7] = target: T3, Hepatic triacylglycerol lipase (Homo sapiens, UniProt P11150); experiment: Inhibition of hepatic lipase (unknown origin)
T3 sequence (P11150 whole entry): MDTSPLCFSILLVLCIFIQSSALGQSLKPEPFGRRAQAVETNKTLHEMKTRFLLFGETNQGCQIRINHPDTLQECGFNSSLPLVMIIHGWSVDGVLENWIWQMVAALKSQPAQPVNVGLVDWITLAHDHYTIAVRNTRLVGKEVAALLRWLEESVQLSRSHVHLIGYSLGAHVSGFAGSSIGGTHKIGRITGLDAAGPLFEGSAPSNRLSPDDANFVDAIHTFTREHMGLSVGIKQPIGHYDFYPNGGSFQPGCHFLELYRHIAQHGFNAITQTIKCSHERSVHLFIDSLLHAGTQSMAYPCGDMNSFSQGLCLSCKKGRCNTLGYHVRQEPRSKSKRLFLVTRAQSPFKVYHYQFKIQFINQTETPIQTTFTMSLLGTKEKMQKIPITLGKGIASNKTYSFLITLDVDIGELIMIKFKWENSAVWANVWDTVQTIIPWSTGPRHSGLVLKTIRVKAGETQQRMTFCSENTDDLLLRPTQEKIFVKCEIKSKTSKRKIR

[8] = Permeability of compound at pH 7.4 by PAMPA; type: ADME; conditions: read-out: permeability
[9] = Permeability of compound at pH 5.0 by PAMPA; type: ADME; conditions: read-out: permeability
[10] = Metabolic stability in mouse liver microsomes assessed as parent compound remaining at 0.5 uM preincubated with compound followed by NADPH addition and measured after 10 mins; type: ADME, Microsome; conditions: read-out: Stability
[11] = target: Cytochrome P450 2C19 (Homo sapiens, UniProt P33261); experiment: Inhibition of CYP2C19 (unknown origin); type: ADME
Sequence of Cytochrome P450 2C19 (P33261 whole entry): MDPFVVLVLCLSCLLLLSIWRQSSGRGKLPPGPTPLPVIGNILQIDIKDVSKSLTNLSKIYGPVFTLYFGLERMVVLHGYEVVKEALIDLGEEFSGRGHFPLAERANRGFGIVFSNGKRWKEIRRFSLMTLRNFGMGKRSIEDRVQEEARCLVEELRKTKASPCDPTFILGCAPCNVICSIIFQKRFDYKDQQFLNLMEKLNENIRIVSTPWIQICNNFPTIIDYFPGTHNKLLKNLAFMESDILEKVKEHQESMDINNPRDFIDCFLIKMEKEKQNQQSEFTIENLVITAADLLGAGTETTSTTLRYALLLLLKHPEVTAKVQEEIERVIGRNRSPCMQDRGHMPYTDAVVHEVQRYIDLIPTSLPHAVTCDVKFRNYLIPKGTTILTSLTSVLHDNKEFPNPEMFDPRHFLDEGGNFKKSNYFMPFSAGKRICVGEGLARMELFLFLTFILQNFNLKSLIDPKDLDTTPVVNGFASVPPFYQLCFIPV

[12] = Permeability across apical to basolateral side in human Caco2 cells; type: ADME, cell-based; conditions: Caco-2, read-out: permeability
[13] = Permeability across basolateral to apical side in human Caco2 cells; type: ADME, cell-based; conditions: Caco-2, read-out: permeability
[14] = target: T1, Endothelial lipase; experiment: Inhibition of endothelial lipase (unknown origin)
[15] = Tmax in BALB/c mouse at 50 mg/kg, ip; type: ADME, organism-based; conditions: in vivo
[16] = AUC (0 to 24 hrs) in BALB/c mouse at 50 mg/kg, ip measured up to 24 hrs; type: ADME, organism-based; design: time < 24 hr, dose 50 mg/kg, route intraperitoneal; conditions: in vivo
[17] = test system: Mus musculus; experiment: Antiatherosclerotic in C57BL/6 mouse assessed as increase in HDL-cholesterol level in plasma at 50 mg/kg, ip qd administrated for 2 days and measured 6 hrs post last dose by FPLC analysis; type: functional, organism-based
[18] = Ratio of Cmin in BALB/c mouse to IC50 for endothelial lipase in human serum; type: ADME; conditions: in vivo
[19] = Half life in BALB/c mouse at 10 mg/kg, po; type: ADME, organism-based; conditions: in vivo
[20] = Cmax in BALB/c mouse at 50 mg/kg, ip; type: ADME, organism-based; design: dose 50 mg/kg, route intraperitoneal; conditions: in vivo
[21] = Tmin in BALB/c mouse at 50 mg/kg, ip; type: ADME, organism-based; conditions: in vivo
[22] = target: T4, Endothelial lipase (Homo sapiens) (UniProt Q9Y5X9); experiment: Reversible inhibition of endothelial lipase (unknown origin) assessed as recovery of enzyme activity measured after 24 hrs by dialysis based assay relative to control; design: scale not given: the % may be the effect or the level left
T4 sequence (whole entry): T1 sequence (Q9Y5X9 whole entry)

[23] = Tmax in BALB/c mouse at 10 mg/kg, po; type: ADME, organism-based; conditions: in vivo
[24] = Plasma concentration in BALB/c mouse at 50 mg/kg, ip measured at 24 hrs post dose; type: ADME, organism-based
[25] = Cmax in BALB/c mouse at 10 mg/kg, po; type: ADME, organism-based; design: dose 10 mg/kg, route oral; conditions: in vivo
[26] = Half life in BALB/c mouse at 50 mg/kg, ip; type: ADME, organism-based; conditions: in vivo
[27] = test system: Mus musculus; experiment: Antiatherosclerotic in C57BL/6 mouse assessed as change in phospholipid level in plasma at 50 mg/kg, ip qd administrated for 2 days and measured 6 hrs post last dose by FPLC analysis; type: functional, organism-based
[28] = AUC (0 to 24 hrs) in BALB/c mouse at 10 mg/kg, po; type: ADME, organism-based; design: time < 24 hr, dose 10 mg/kg, route oral; conditions: in vivo
[29] = Plasma concentration in BALB/c mouse at 10 mg/kg, po measured at 24 hrs post dose; type: ADME, organism-based

| remaining at 10 min, 0.5 µM [1] [%] | IC50 [2] [nM] | IC50 [3] [nM] | IC50 [4] [nM] | IC50 [5] [nM] | IC50 [6] [nM] | IC50 [7] [nM] | Papp [8] [×10⁻⁶ cm/s] | Papp [9] [×10⁻⁶ cm/s] | remaining at 10 min, 0.5 µM [10] [%] | IC50 [11] [nM] | Papp A→B [12] [×10⁻⁶ cm/s] | Papp B→A [13] [×10⁻⁶ cm/s] | IC50 [14] [nM] | SMILES | other results |
| --- | --- | --- | --- | --- | --- | --- | --- | --- | --- | --- | --- | --- | --- | --- | --- |
| 78 | > 18000 | > 18000 | 30 | > 18000 | > 18000 | 1800 | 0.3 | 0.2 | 91 | > 18000 | < 1.5 | 3 |  | CN1CCN(C(=O)c2ccc(-c3ccc4nc(C(C#N)C(=O)NCC(=O)NC5CC5)sc4c3)cc2)CC1 (racemic) |  |
| 87 | > 18000 | > 18000 | 50 | > 18000 | > 18000 | 190 | 0.4 | 6.5 | 87 | > 18000 | < 1.5 | 34.9 |  | N#CC(C(=O)NCC(=O)NC1COC1)c1nc2ccc(-c3ccc(F)nc3)cc2s1 (racemic) |  |
|  |  |  | 70 |  |  | 1100 |  |  |  |  |  |  |  | CN(C)C(=O)c1ccc(-c2ccc3nc(C(C#N)C(=O)NCC(=O)NC4CC4)sc3c2)cc1F (racemic) |  |
|  |  |  | 230 |  |  | 500 |  |  |  |  |  |  | 170 | N#CC(C(=O)NCC(=O)NC1CC1)c1nc2ccc(-c3ccc(F)nc3)cc2s1 (racemic) |  |
|  |  |  | 80 |  |  | 0.8 |  |  |  |  |  |  | 1 | N#CC(C(=O)NCC(=O)NC1CC1)c1nc2ccc(-c3ccc(NC(=O)OCc4ccccc4)cc3)cc2s1 (racemic) |  |
|  |  |  | 100 |  |  | 70 |  |  |  |  |  |  | 5.3 | N#CC(C(=O)NCC(=O)NC1CC1)c1nc2ccc(-c3ccc4c(c3)CNC4=O)cc2s1 (racemic) |  |
|  |  |  | 200 |  |  | 490 |  |  |  |  |  |  | 3100 | CN1CCN(C(=O)c2ccc(-c3ccc4nc(C(C#N)C(=O)NCC(=O)NC5CCC5)sc4c3)cc2)CC1 (racemic) |  |
| 98 | > 18000 | > 18000 | 50 | > 18000 | > 18000 | 300 | 0.4 | 10.4 | 100 | > 18000 | 1.7 | 18.4 |  | N#CC(C(=O)NCC(=O)NC1CC1)c1nc2ccc(-c3ccc(C(=O)N4CCOCC4)cc3)cc2s1 (racemic) |  |
|  |  |  | 130 |  |  | 420 |  |  |  |  |  |  |  | N#CC(C(=O)NCC(=O)NC1CC1)c1nc2ccc(-c3ccc4c(c3)C(=O)NC4)cc2s1 (racemic) |  |
| 76 | > 18000 | > 18000 | 30 | > 18000 | > 18000 | 720 | 0.3 | 8.4 | 99 | > 18000 | < 1.5 | 7.5 |  | CN(C)C(=O)c1cccc(-c2ccc3nc(C(C#N)C(=O)NCC(=O)NC4CC4)sc3c2)c1 (racemic) |  |
|  |  |  | 170 |  |  | 170 |  |  |  |  |  |  |  | N#CC(C(=O)NCC(=O)NC1CC1)c1nc2ccc(-c3ccc(C(=O)N4CCC4)cc3)cc2s1 (racemic) |  |
|  |  |  | 1100 |  |  | 250 |  |  |  |  |  |  | 1300 | N#CC(C(=O)NCC(=O)N1CCCC1)c1nc2ccc(-c3ccccc3)cc2s1 (racemic) |  |
|  |  |  | 140 |  |  | 35 |  |  |  |  |  |  |  | N#CC(C(=O)NCC(=O)NC1CC1)c1nc2ccc(-c3cccc(C(=O)N4CCCCC4)c3)cc2s1 (racemic) |  |
| 91 | > 18000 | > 18000 | 51 | > 18000 | > 18000 | 5.4 | 84.5 | 162 | 86 | > 18000 | 2 | 24.6 |  | N#CC(C(=O)NCC(=O)NC1CC1)c1nc2ccc(-c3ccccc3)cc2s1 (racemic) | Tmax [15]: 7 h; AUC(0-t) at 24 h [16]: 330 µM·h; Activity [17]: inactive; Ratio [18]: > 30; half-life [19]: 8.5 h; Cmax [20]: 28 µM; Tmin [21]: 23.8 h; Activity [22]: 88%; Tmax [23]: 0.25 h; concentration at 24 h [24]: 1.66 µM; Cmax [25]: 6.6 µM; half-life [26]: 4.7 h; Activity [27]: inactive; AUC(0-t) at 24 h [28]: 18 µM·h; concentration at 24 h [29]: 0.14 µM |
